This is an account of results in PMC5945843, “Direct neurotransmitter activation of voltage-gated potassium channels” (Nature Communications, 2018).

The test system of test [1] is KCNQ3*. The arrangement: method as in PMID 26333338. Particulars: read-out: EC50 (sensitivity previously reported); cited from earlier work.
Test [2] deals with heteromeric KCNQ2/3 channels (Homo sapiens, UniProt O43525+O43526). In words: TEVC in Xenopus oocytes. The following applies: for Slope: Ctrl 6.2 ± 0.8; for Normalized tail current V0.5: Ctrl -36.1 ± 1.8; for Non-normalized tail current V0.5: Ctrl -36.4 ± 8.7. The format is cell-based.
From the text: cRNA transcripts encoding human KCNQ1, KCNQ2, KCNQ3, KCNQ4, KCNQ5, KCNA1, or KCNE1 were generated by in vitro transcription using the T7 polymerase mMessage mMachine kit (Thermo Fisher Scientific), after vector linearization, from complementary DNA (cDNA) sub-cloned into plasmids incorporating Xenopus laevis β-globin 5′ and 3′ untranslated regions flanking the coding region to enhance translation and cRNA stability. cRNA was quantified by spectrophotometry. […] Defolliculated stage V and VI Xenopus laevis oocytes (Ecocyte Bioscience, Austin, TX) were injected with Kv channel α subunit cRNAs (5–10 ng).
Oocytes were placed in a small-volume oocyte bath (Warner) and viewed with a dissection microscope. Chemicals were sourced from Sigma. Bath solution was (in mM): 96 NaCl, 4 KCl, 1 MgCl2, 1 CaCl2, 10 HEPES (pH 7.6). […] Valeric acid was stored as a 5 mM stock in Ringer’s solution at 4 °C and diluted to working concentrations each experimental day. β-hydroxybutyric acid was stored at 4 °C as a 480 mM stock in 100% ethanol and diluted to working concentrations each experimental day. All compounds were introduced to the recording bath via gravity perfusion at a constant flow of 1 ml per min for 3 min prior to recording. Pipettes were of 1–2 MΩ resistance when filled with 3 M KCl. Currents were recorded in response to pulses between −80 mV and +40 mV at 20 mV intervals, or a single pulse to +40 mV, from a holding potential of −80 mV, to yield current-voltage relationships, current magnitude, and for quantifying activation rate. Deactivation was recorded at −80 mV after a single activating pulse to +40 mV, from a holding potential of −80 mV. […] TEVC data analysis was performed with Clampfit (Molecular Devices) and Graphpad Prism software (GraphPad, San Diego, CA, USA); values are stated as mean ± SEM. Normalized tail currents were plotted versus prepulse voltage and fitted with a single Boltzmann function:1 g=(A1-A2)/1+expV1/2-V∕VS+A2, where g is the normalized tail conductance, A1 is the initial value at −∞, A2 is the final value at +∞, V1/2 is the half-maximal voltage of activation, and VS the slope factor. Activation and deactivation kinetics were fitted with single exponential functions.
The test system of test [3] is native M-current in PC12 cells. In words: Whole-cell patch clamp of NGF-differentiated PC12 cells. The format is cell-based, rat. As to the method:
CHO cells (ATCC) were seeded on poly-L-lysine-treated glass coverslips in 24-well plates and transfected the next day using 0.5 µg each of mouse KCNQ2 and KCNQ3 cDNA in a CMV vector per well in normal media (DMEM with 10% FBS and 1% penicillin/streptomycin). The transfection reagent used was TransIT-LT1 (Mirus Bio LLC, Madison, WI, USA) and cells were patched 48–72 h post transfection. […] Media was replenished every 3 days and cultures were split once a week. […] Cell culture plastic ware and reagents were purchased from VWR and Fisher Scientific unless otherwise stated.
For both CHO cells and PC12 cells, currents were recorded in whole-cell mode at room temperature (22–25 °C) with 3–6 MΩ borosilicate glass electrodes backfilled with solution containing (in mM): 90 K acetate, 20 KCl, 40 HEPES, 3 MgCl2, 1 CaCl2, 3 EGTA-KOH, 2 MgATP; pH 7.2.
The pClamp8 (Molecular Devices) software package was used for data acquisition and Clampfit was used for analysis, along with Graphpad Prism 7.0 (Graphpad).

For test [4], the system named is native M-current in mouse DRG neurons. Kind of test: Perforated patch-clamp of dorsal root ganglion neurons. The format is cell-based. The following applies: XE991 10 µM in combination with GABA 100 µM. As to the method:
Adult male mice were purchased from Jackson Labs and then housed and used according to a protocol approved by the Institutional Animal Care and Use Committee of University of California, Irvine, and consistent with recommendations in the NIH Guide for the Care and Use of Laboratory Animals (8th edition, 2011). […]. DRG neurons were then cultured on poly-L-lysine and laminin-coated plastic coverslips in RPMI 1640 with 10% horse serum and 1% penicillin/streptomycin at 37 °C for 1–4 days before electrophysiological recordings were performed using perforated patch clamp. Amphotericin B (VWR, Radnor, PA) was dissolved in DMSO at 5 mg/ml (stock solution), then diluted to 150–200 µg/ml in intracellular solution and sonicated with a probe sonicator on ice for 5 s, kept at room temperature in the dark, and replaced every hour with a fresh solution from the stock. The working amphotericin solution was backfilled into borosilicate glass electrodes (3–5 MΩ) previously tip-filled to ~0.5 mm with intracellular solution lacking amphotericin B, immediately prior to sealing onto individual neurons. After whole-cell configuration was achieved and capacitance stabilized, whole-cell recordings were performed essentially as described in the prior paragraph, with the following differences: neurons were held at −20 mV to inactivate other channels before the test pulses; offline leak subtraction was performed.

The target of test [5] is KCNQ1 (Homo sapiens, UniProt P51787). Kind of test: 3H-GABA radioligand binding in Xenopus oocytes. Particulars: extracellularly applied, 100 nM.
The target of test [6] is KCNQ4 (Homo sapiens, UniProt P56696). In words: 3H-GABA radioligand binding in Xenopus oocytes. Particulars: extracellularly applied, 100 nM.
For test [7], the target named is KCNQ5 (Homo sapiens, UniProt Q9NR82). In words: 3H-GABA radioligand binding in Xenopus oocytes. Particulars: extracellularly applied, 100 nM.
For test [8], the system named is canonical GABAA receptors. Set-up: method as in PMID 17717222. Particulars: up to 5 mM BHB; cited from earlier work.
Test [9] deals with GABA receptors. Set-up: method as in PMID 25779225. The following applies: cited from earlier work.
The mark [10] stands for this setting: 10 µM XE991 + 100 µM picrotoxin + 10 µM CGP55845, recorded after the GABA condition.

heteromeric KCNQ2/3 channels, sequence (O43526 whole entry): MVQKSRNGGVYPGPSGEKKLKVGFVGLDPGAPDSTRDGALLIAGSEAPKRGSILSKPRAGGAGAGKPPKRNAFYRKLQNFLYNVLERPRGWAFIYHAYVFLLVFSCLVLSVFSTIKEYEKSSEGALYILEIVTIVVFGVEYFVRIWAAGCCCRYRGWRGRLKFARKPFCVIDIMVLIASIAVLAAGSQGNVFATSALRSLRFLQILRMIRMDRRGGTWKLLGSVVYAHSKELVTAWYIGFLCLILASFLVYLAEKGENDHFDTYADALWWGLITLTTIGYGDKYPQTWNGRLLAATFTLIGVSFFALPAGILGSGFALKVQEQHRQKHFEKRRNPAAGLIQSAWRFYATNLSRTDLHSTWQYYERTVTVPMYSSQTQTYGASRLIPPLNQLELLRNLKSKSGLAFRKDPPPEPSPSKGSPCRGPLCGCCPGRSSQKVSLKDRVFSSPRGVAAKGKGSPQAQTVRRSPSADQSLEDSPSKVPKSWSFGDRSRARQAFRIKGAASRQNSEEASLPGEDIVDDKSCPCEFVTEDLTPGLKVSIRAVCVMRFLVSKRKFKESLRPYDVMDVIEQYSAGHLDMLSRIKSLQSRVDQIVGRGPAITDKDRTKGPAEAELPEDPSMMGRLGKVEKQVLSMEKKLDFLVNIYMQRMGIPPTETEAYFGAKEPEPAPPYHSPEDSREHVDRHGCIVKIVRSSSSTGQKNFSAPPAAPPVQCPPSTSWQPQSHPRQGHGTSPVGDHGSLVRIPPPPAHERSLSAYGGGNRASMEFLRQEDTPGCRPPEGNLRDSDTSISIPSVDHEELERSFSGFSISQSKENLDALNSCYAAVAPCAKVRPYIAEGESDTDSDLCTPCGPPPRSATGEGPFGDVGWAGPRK
heteromeric KCNQ2/3 channels, sequence (O43525 whole entry): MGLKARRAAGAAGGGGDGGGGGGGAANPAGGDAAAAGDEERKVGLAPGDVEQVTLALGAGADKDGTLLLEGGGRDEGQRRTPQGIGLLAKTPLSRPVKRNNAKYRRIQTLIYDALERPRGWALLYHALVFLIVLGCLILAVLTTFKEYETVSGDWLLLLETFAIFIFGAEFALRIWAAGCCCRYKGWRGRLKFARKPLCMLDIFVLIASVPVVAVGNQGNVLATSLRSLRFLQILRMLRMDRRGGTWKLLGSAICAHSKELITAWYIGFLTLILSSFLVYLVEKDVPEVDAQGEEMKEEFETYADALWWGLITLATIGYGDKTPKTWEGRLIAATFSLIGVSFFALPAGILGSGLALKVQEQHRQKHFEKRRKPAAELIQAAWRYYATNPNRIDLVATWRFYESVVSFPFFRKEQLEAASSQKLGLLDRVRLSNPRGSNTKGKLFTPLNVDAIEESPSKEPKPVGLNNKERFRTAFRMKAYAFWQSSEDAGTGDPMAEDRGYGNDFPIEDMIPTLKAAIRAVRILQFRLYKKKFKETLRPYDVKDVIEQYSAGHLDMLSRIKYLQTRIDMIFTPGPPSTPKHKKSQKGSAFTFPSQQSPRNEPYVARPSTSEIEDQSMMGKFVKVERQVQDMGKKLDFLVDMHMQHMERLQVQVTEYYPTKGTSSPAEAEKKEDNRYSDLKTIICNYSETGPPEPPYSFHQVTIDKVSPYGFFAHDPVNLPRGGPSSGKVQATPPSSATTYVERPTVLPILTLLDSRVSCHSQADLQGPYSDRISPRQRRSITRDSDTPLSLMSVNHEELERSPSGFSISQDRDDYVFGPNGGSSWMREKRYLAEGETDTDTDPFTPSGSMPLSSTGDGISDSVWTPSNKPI

Consider `Cc1cc(C)c(NC(=O)C2CC3CCC2C3)c(C)c1` (stereo not drawn) [ML-213], for which the EC50 (commonly the concentration needed to bring the measured effect to its halfway point) in [1] was 3.6 µM.
`O=C1c2ccccc2C(Cc2ccncc2)(Cc2ccncc2)c2ccccc21` [XE991]: the “effect on GABA-augmented KCNQ2/3 current” value in [2] (XE991 50 µM) was “readily inhibited”. Also, in [3] (setting [10]), the “Normalized tail current V0.5” value was -4.9 ± 4.3 mV and the Slope is on record as 18.4 ± 2.2 mV. In [3] (XE991 10 µM), the “effect on GABA-dependent shift of tail currents” value is recorded as “removed the GABA-dependent negative-shift”. For the same molecule, the “inhibition of deactivating current at −60 mV” value in [4] was greater than 50%.
With `[3H]C(CN)C([3H])C(=O)O` (stereo not drawn) [^3H-GABA], the results for the 3H-GABA binding entry in test [5], in [6] and in test [7] were “did not”, “bound” and “bound”, respectively.
Consider `CC(O)CC(=O)O` (stereo not drawn) [BHB, β-hydroxybutyric acid], for which the Slope in [2] (1 µM β-Hydrox) was determined as 5.9 ± 0.4 mV; in test [2] (10 µM β-Hydrox), 5.9 ± 0.4 mV; in test [2] (100 µM β-Hydrox), 5.9 ± 0.3 mV; in test [2] (1 mM β-Hydrox) it was 5.7 ± 0.6 mV; in test [2] (4 mM β-Hydrox) it was 4.9 ± 0.6 mV. In addition, the “Normalized tail current V0.5” value in test [2] (1 µM β-Hydrox) is -46.1 ± 0.6 mV; in test [2] (10 µM β-Hydrox) it was -48.1 ± 0.4 mV; in test [2] (100 µM β-Hydrox), -50.2 ± 0.3 mV; in test [2] (1 mM β-Hydrox) it was -46.5 ± 0.9 mV; in [2] (4 mM β-Hydrox), -44.9 ± 0.8 mV. For the same molecule, the “Non-normalized tail current V0.5” value in [2] (1 µM β-Hydrox) was -43.9 ± 8.2 mV; in test [2] (10 µM β-Hydrox), -45.5 ± 7.9 mV; in test [2] (100 µM β-Hydrox), -46.0 ± 7.9 mV; in [2] (1 mM β-Hydrox), -46.0 ± 7.4 mV; in test [2] (4 mM β-Hydrox), -44.7 ± 7.1 mV. In test [2] (at −60 mV), this molecule displayed an EC50 of 0.95 ± 0.13 µM. In addition, the BHB sensitivity entry in test [8] is “BHB-insensitive”.
With picrotoxin, the Slope in [3] (100 µM picrotoxin + 10 µM CGP55845, Ctrl (extracellular solution only) 20.3 ± 4.5) came to 17.4 ± 3.0 mV. In test [3] (100 µM picrotoxin + 10 µM CGP55845, Ctrl (extracellular solution only) -9.2 ± 4.9), the “Normalized tail current V0.5” value was -7.1 ± 7.6 mV.
Take `CCOC(=O)Nc1ccc(NCc2ccc(F)cc2)cc1N` [retigabine]: the EC50 in test [1] was 11.6 µM. In addition, the “action on GABA receptors” value in test [9] was “weak activator”.
